Measured values reported in patent US7994189B2, “Dihydropyridine derivatives” (N.V. Organon, priority 2005, dated 2011).

Molecular target: T1, human FSH receptor (Homo sapiens, UniProt P23945)
T1 construct: expressed in transfected cells; host or cells: Chinese Hamster Ovary (CHO) cells
T1 sequence (P23945 18-695): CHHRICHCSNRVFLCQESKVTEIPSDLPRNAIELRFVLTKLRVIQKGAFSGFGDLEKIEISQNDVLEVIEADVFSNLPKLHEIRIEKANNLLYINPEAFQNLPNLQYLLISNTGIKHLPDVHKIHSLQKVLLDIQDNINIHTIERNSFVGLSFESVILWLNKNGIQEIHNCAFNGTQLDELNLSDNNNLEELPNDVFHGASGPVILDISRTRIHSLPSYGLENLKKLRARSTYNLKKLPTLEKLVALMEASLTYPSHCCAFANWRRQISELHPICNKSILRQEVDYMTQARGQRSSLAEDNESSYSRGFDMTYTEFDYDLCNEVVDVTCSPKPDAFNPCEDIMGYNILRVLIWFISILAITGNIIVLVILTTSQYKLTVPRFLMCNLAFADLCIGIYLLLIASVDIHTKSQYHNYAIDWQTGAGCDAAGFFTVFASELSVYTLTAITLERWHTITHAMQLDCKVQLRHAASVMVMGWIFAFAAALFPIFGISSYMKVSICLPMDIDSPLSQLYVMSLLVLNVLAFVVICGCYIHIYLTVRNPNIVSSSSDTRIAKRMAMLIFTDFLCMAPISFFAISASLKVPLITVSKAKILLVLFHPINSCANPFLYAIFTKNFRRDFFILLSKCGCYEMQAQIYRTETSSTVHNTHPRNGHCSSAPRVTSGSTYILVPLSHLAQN
Test: CHO-FSH in vitro bioactivity (CRE/luciferase reporter gene)
Type: cell-based
Conditions: CHO cells stably transfected with the human FSH receptor and CRE/firefly luciferase reporter; luminescence; read-out: EC50 (concentration of test compound causing half-maximal (50%) stimulation)
Method: CHO-FSH In Vitro Bioactivity
FSH activity of compounds were tested in Chinese Hamster Ovary (CHO) cells stably transfected with the human FSH receptor and cotransfected with a cAMP responsive element (CRE)/promotor directing the expression of a firefly luciferase reporter gene. Binding of ligand to the Gs-coupled FSH receptor will result in an increase of cAMP, which in turn will induce an increased transactivation of the luciferase reporter construct. The luciferase signal was quantified using a luminescence counter. For test compounds, EC50 values (concentration of test compound causing half-maximal (50%) stimulation) were calculated. For that purpose the software program GraphPad PRISM, version 3.0 (GraphPad software Inc., San Diego) was used.

Compound | EC50
CCCC1CC(=O)C2=C(C1)NC(C)=C(C#N)C2c1cc(Br)c(OCc2ccc(C(=O)NCc3cccs3)cc2)c(OCC)c1 (centres unmarked) [Example 29, 4-[2-Bromo-4-(3-cyano-2-methyl-5-oxo-7-propyl-1,4,5,6,7,8-hexahydroquinolin-4-yl)-6-ethoxyphenoxymethyl]-N-thiophen-2-ylmethylbenzamide] | < 1 nM
CCCC1CC(=O)C2=C(C1)NC(C)=C(C#N)C2c1cc(Br)c(OCc2cccc(C(=O)NCC(=O)OC)c2)c(OCC)c1 (centres unmarked) [Example 24, Glycine N-3-[2-bromo-4-(3-cyano-2-methyl-5-oxo-7-propyl-1,4,5,6,7,8-hexahydroquinolin-4-yl)-6-ethoxyphenoxymethyl]benzoyl methyl ester] | < 1 nM
